Data from ChEMBL document CHEMBL1201862, “PubChem BioAssay data set” (2004).
Blank lines part the entries; values can stand above or below the compound they belong to. Calls of active or inactive are those of the source.

What was measured:
SN12K1 = assay: cells; type: functional; details: Homo sapiens
P388 = assay: cells; type: functional; details: Mus musculus
P388/ADR = assay: cells; type: functional; details: Mus musculus
Cytochrome P450 2C9 = Cytochrome P450 2C9 (Homo sapiens, UniProt P11712)
Cytochrome P450 2D6 = Cytochrome P450 2D6 (Homo sapiens, UniProt P10635);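 also: CYP2D6 member of a cytochrome P450 panel assay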
[1] = inhibitors of clade B AD8 Env fusion, dose response, cell-based, cherry-pick (AID 652062); type: functional;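 also: luciferase signal from cell-cell fusion driven by HIV-1 clade B AD8 Env; potency is for inhibitors of fusion seen as a drop in luminescence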
[2] = inhibitors of HIV Env-driven cell fusion, dose response, cherry-pick (AID 652057); type: functional, cell-based
[3] = molecular target: Heat shock protein HSP 90-alpha (Homo sapiens, UniProt P07900); type: functional, organism-based
[4] = C. albicans growth with fluconazole, confirmation, fluorescence, retest (AID 2467); type: functional, cell-based
[5] = molecular target: T1, High affinity choline transporter 1 (Homo sapiens, UniProt Q9GZV3); assay: CHT inhibitors, dose response, cell-based, 5-point CRC, membrane potential dye (AID 504840); type: functional
T1 sequence (Q9GZV3 whole entry): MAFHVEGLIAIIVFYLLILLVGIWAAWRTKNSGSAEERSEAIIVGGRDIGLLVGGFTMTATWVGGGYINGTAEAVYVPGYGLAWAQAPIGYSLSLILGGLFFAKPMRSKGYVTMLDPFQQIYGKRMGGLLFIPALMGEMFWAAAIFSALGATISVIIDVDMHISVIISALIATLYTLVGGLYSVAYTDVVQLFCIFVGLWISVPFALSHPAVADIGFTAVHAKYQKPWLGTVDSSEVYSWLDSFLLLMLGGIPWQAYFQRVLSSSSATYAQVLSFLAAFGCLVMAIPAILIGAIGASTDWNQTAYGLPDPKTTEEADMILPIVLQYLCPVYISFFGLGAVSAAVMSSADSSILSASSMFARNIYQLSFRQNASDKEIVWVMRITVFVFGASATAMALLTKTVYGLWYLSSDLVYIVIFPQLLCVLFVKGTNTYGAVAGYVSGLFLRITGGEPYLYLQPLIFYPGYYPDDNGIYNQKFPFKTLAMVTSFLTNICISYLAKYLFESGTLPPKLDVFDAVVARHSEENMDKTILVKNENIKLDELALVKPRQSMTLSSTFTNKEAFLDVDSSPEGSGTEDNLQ

[6] = Luminescence Cell-Based Dose Retest to Confirm Inhibitors of Cancer Stem Cells. [Related pubchem assays (depositor defined):AID2717, AID2721]; type: functional; details: Homo sapiens
[7] = NIH-3T3 fibroblast cytotoxicity, dose response, cytotoxicity control, cell-based, fluorescence, Alamar Blue, secondary assay (AID 2327); type: functional;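 also: NIH-3T3 mouse fibroblasts cultured with fluconazole at 8 µg/mL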
[8] = molecular target: T2, Corticotropin-releasing factor receptor 2/Corticotropin-releasing factor-binding protein (Homo sapiens, UniProt P24387+Q13324); assay: Dose Response confirmation of uHTS hits for small molecule antagonists of the CRF-binding protein and CRF-R2 receptor complex.; type: functional; details: read-out: IC50_Mean
T2 sequence (Q13324 whole entry): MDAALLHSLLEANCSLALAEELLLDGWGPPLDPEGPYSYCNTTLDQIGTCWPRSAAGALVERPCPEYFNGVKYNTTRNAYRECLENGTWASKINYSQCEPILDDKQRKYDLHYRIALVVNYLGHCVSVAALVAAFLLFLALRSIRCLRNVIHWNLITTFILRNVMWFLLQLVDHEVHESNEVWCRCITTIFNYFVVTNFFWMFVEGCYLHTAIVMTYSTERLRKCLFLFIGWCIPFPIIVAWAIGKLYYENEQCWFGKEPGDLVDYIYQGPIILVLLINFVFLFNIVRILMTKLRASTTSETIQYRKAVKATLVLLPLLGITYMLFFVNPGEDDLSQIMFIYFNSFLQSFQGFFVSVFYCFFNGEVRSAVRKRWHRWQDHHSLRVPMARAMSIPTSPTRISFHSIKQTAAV
T2 sequence (P24387 whole entry): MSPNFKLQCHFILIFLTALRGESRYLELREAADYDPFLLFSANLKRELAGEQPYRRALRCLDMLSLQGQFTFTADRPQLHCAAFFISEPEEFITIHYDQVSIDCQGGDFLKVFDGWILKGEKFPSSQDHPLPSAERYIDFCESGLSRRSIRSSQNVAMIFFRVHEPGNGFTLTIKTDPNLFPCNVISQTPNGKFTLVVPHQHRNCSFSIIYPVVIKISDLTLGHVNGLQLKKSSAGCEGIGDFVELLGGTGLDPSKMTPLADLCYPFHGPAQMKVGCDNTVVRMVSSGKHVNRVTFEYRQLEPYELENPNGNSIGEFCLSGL

[9] = molecular target: T2, Corticotropin-releasing factor receptor 2/Corticotropin-releasing factor-binding protein; assay: activators of CRF receptor 2 with binding protein – uHTS hits, confirmation (AID 602473); type: functional; details: read-out: EC50_Mean
Cytochrome P450 2C19 = Cytochrome P450 2C19 (Homo sapiens, UniProt P33261); assay: Cytochrome panel assay with activity outcomes. Panel member name: p450-cyp2c19 Compounds with AC50 equal or less than 10 uM are considered active; type: functional; details: read-out: AC50
Chain of Cytochrome P450 2C19 (P33261 whole entry): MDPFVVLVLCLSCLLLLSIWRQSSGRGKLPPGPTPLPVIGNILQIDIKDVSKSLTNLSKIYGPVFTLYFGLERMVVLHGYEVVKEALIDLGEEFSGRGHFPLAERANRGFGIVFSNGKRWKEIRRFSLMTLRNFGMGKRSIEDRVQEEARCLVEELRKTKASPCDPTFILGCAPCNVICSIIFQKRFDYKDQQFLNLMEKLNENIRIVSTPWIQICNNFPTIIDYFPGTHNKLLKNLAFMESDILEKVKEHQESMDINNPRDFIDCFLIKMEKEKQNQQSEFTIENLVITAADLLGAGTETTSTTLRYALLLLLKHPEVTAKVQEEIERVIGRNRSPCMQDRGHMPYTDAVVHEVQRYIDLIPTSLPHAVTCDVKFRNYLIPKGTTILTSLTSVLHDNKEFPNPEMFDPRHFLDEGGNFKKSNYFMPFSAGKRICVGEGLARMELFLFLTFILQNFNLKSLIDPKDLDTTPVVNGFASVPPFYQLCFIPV

Chain of Cytochrome P450 2C9 (P11712 whole entry): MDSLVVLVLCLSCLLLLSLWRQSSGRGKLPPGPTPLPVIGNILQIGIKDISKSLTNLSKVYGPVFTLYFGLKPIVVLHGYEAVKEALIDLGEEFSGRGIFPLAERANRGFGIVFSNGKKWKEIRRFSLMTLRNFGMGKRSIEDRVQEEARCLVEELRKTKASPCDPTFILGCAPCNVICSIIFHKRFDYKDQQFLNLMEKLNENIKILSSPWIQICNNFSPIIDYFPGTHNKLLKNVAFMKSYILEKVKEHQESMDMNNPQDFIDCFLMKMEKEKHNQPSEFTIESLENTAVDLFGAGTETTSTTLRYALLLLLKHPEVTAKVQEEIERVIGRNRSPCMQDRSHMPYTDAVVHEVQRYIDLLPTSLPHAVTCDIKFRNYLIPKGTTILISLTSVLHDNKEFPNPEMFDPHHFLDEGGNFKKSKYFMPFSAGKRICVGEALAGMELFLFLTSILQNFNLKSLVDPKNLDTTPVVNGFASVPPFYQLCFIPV
Chain of Cytochrome P450 2D6 (P10635 whole entry, the tested form may be a part): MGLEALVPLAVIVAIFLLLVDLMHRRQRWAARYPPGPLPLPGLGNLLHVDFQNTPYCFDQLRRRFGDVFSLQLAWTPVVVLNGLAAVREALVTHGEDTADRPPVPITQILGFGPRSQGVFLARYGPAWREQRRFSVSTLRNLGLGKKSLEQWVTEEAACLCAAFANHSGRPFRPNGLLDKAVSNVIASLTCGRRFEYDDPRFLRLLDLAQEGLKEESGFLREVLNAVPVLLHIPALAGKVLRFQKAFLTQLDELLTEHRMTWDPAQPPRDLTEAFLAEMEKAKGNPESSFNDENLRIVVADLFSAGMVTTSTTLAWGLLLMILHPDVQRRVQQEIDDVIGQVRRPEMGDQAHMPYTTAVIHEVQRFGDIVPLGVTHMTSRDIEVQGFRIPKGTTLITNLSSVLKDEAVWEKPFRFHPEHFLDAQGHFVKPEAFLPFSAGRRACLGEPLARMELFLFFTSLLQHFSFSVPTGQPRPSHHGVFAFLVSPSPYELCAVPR

Structure (SMILES): CN(C)CCNC(=O)c1cccc2cc3cc(O)ccc3nc12
GI50 (SN12K1): 0.339 µM (active)
GI50 (P388): 0.0748 µM (active)
GI50 (P388/ADR): 0.288 µM (active)

Structure (SMILES): Nc1cc(O)c2cc(/N=N/c3ccc(/N=N/c4ccc(/N=N/c5ccc6cc(S(=O)(=O)O)cc(S(=O)(=O)O)c6c5)c5ccccc45)c4cc(S(=O)(=O)O)ccc34)c(S(=O)(=O)O)cc2c1
GI50 (SN12K1): > 100 µM (inactive)
GI50 (P388): > 100 µM (inactive)

AC50 (Cytochrome P450 2C9): inconclusive
AC50 (Cytochrome P450 2D6): 25.1 µM (inconclusive)
Structure (SMILES): Cc1cnc(CNc2ccnc(-c3cccnc3)n2)cn1

Structure (SMILES): O=c1c2ccccc2nnn1CSc1nnc(COc2ccc(Cl)cc2)n1Cc1ccco1
AC50 [1]: 1.12 µM (active)
AC50 [2]: 15.2 µM (active)
AC50 [3]: 3.26 µM (active)

Structure (SMILES): O=c1oc2ccccc2c(O)c1Cc1cc(Cl)c2cccnc2c1O
EC50 [4]: > 38 µM (not active)
IC50 [5]: 15.2 µM (active)
AC50 [3]: 7.2 µM (active)
AC50 [6]: 1.09 µM (active)
EC50 [7]: 76.3 µM (active)

Structure (SMILES): CNC(=O)OCc1nc(SC(C)C)n(C)c1COC(=O)NC
GI50 (SN12K1): > 100 µM (inactive)
GI50 (P388): 46.9 µM (inactive)
GI50 (P388/ADR): 83.6 µM (inactive)

IC50 [8]: > 47.1 µM (inactive)
EC50 [9]: > 53 µM (inactive)
Structure (SMILES): COc1cc2c(cc1NC(=O)COC(=O)CNC(=O)c1ccccc1)oc1ccccc12

IC50 [8]: > 47.1 µM (inactive)
EC50 [9]: > 53 µM (inactive)
Structure (SMILES): O=C(NCc1cccc(Cl)c1)C1CCC(=O)N(CC2CCCCC2)C1 (stereo unspecified)

IC50 [8]: > 47.1 µM (inactive)
EC50 [9]: > 53 µM (inactive)
Structure (SMILES): COc1ccc(CCn2c(=O)c3cccnc3n(Cc3cccc([N+](=O)[O-])c3)c2=O)cc1OC

AC50 (Cytochrome P450 2C19): 8.91 µM (inconclusive)
AC50 (Cytochrome P450 2C9): inconclusive
Structure (SMILES): C/C(=N\OC(=O)c1cccc(C)c1)c1sc(-c2ccccc2)nc1C
